Source: article PMC9917023, “Stabilization of Monomeric Tau Protein by All D-Enantiomeric Peptide Ligands as Therapeutic Strategy for Alzheimer’s Disease and Other Tauopathies” (International Journal of Molecular Sciences, 2023)
Non-standard residues stand in square brackets, D forms with d. Residues, ends and D or L forms follow the SMILES beside them.

What was measured:
[1] = Stability in human blood plasma; format: in vitro ADME; settings: K3EDTA human blood plasma, after 48 h; read-out: still detectable in human blood plasma
Description: (§1) Figure 12 Stability assay of TF2D-5 and TF2D-5a using different simulated human body fluids. (A) Stability of compounds in simulated gastric fluid (SGF). The simulated gastric fluid consisted of 2 mg/mL sodium chloride, 3.2 mg/mL pepsin, and 80 mM HCl; pH 1. (B) Stability of TF2D-5 and TF2D-5a in simulated intestinal fluid (SIF). Simulated intestinal fluid consisted of 6.8 mg/mL potassium dihydrogen phosphate, 10 mg/mL pancreas powder, and 15.4 mM NaOH; pH 6.8. (C) Stability of TF2D-5 and TF2D-5a in human blood plasma. K3EDTA human blood plasma was purchased from BioTrend. (D) Stability of TF2D-5 and TF2D-5a in human liver microsomes. Human liver microsomes consisted of 6 mg/mL protein (containing Cytochrome P450 (CYP) enzymes), 75 mM sucrose, 1.3 mM NADPH, 3.3 mM D-glucose-6-phosphat, 0.2 u/mL D-glucose-6-phosphat dehydrogenase, 3.3 mM magnesium chloride, and 100 mM potassium phosphate; pH 7.4.
(§2) The stability of the compounds was tested according to Elfgen et al. and Schemmert et al. Exceptions included the extraction of plasma, simulated gastric fluid (SGF), and simulated intestinal fluid (SIF) samples. These were obtained by the addition of 12.5 µL 0.35 M ZnSO4, followed by vortexing, the addition of 12.5 µL 0.5 M HCl, additional vortexing, and centrifugation at 14,000× g for 10 min at 4 °C.

[2] = Stability in human liver microsomes; format: in vitro ADME; settings: 6 mg/mL protein, 1.3 mM NADPH with regenerating system, pH 7.4, after 24 h, read-out: still unmetabolized in human liver microsomes
Description: as §1, §2

[3] = biological target: T1, monomeric full-length tau 441 (Homo sapiens, UniProt P10636); assay: SPR measurement (Biacore T200, multicycle); format: binding; settings: compound immobilized on CM5 chip, tau as analyte, 1:1 fit, dissociation time 60 min; read-out: dissociation rate (kd)
T1 construct: The gene for the human full-length tau was prepared on a plasmid called pET28a(+)-tau2N4R; made in house; host or cells: E. coli pRare
T1 sequence (P10636 1-441 isoform P10636-8): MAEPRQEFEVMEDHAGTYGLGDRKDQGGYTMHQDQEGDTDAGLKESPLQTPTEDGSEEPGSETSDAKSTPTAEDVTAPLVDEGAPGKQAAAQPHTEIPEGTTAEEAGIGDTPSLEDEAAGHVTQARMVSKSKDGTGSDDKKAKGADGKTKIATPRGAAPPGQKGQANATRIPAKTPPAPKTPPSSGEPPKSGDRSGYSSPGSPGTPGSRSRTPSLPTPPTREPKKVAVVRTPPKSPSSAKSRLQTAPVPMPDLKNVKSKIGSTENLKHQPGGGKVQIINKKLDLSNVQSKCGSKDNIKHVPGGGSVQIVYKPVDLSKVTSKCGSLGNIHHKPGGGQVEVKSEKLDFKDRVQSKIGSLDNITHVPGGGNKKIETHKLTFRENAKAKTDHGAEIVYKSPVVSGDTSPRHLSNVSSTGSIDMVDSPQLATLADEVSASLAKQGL
Description: Figure 8 SPR measurements of TF2D-5 and TF2D-5a with monomeric full-length tau 441 and tau repeat region 3. […] The concentration of tau during the measurement ranged from 3.125 nM to 25 nM. […] Tau was used in concentrations ranging from 31.25 nM to 500 nM. SPR measurements of A and B were recorded on a T200 Biacore instrument, the corresponding compound was immobilized on a CM5 chip from Cytiva while monomeric tau served as analyte. Tests were performed with TBS pH 7.4, 0.05% Tween20 and 10 µM DTT as running buffer. Fit calculation was completed with the internal evaluation software of the T200 Biacore. A 1:1 model was used for both fits. […] The concentrations for the single cycle measurement ranged from 3.125 nM to 100 nM. Measurements of C were performed on a Biacore 8K using a CM5 chip from Cytiva. TF2D-5a was immobilized on the chip while the R3 region of tau was used as analyte. PBS pH 7.4 with 0.05% Tween20 as used as running buffer. Fit calculation was performed using the Biacore insight evaluation software and a 1:1 model. […]
Measurements of TF2D-5 and TF2D-5a against full-length tau 441 were performed on a Biacore T200 (Biacore, GE Healthcare, Uppsala, Sweden) using multicycle experiments. […] The data were evaluated using the Biacore T200 Evaluation Software 3.2 using a 1:1 fit (RI = 0).

Row | remaining at 48 h [1] [%] | remaining at 24 h [2] [%] | koff [3] [s⁻¹] | Structure (SMILES)
1 | 97.4 | 3.7 | 1.9e-05 | CC[C@@H](C)[C@@H](NC(=O)[C@@H](Cc1c[nH]cn1)NC(=O)CNC(=O)CNC(=O)[C@H]1CCCN1C(=O)[C@H](NC(=O)[C@@H](CCCCN)NC(=O)[C@@H](Cc1ccccc1)NC(=O)[C@@H](CC(C)C)NC(=O)[C@H](NC(=O)[C@@H](CCC(N)=O)NC(=O)[C@@H](Cc1ccc(O)cc1)NC(=O)CNC(=O)CNC(=O)[C@H](N)CC(=O)O)[C@H](C)CC)[C@H](C)CC)C(=O)N[C@H](Cc1c[nH]cn1)C(N)=O [TF2D-5] (H-[dD]GG[dY][dQ][dI][dL][dF][dK][dI][dP]GG[dH][dI][dH]-NH2)
2 | 86.5 | 13.2 | 4.3e-05 | CC[C@@H](C)[C@@H](NC(=O)[C@@H](Cc1c[nH]cn1)NC(=O)CNC(=O)CNC(=O)[C@H]1CCCN1C(=O)[C@H](NC(=O)[C@@H](CCCCN)NC(=O)[C@@H](Cc1ccccc1)NC(=O)[C@@H](CC(C)C)NC(=O)[C@H](NC(=O)[C@@H](CCC(N)=O)NC(=O)[C@@H](Cc1ccc(O)cc1)NC(=O)CNC(=O)CNC(=O)[C@H](N)CC(=O)O)[C@H](C)CC)[C@H](C)CC)C(=O)N[C@H](Cc1c[nH]cn1)C(=O)N[C@H](CCCNC(=N)N)C(=O)N[C@H](CCCNC(=N)N)C(=O)N[C@H](CCCNC(=N)N)C(=O)N[C@H](CCCNC(=N)N)C(=O)N[C@H](CCCNC(=N)N)C(N)=O [TF2D-5a] (H-[dD]GG[dY][dQ][dI][dL][dF][dK][dI][dP]GG[dH][dI][dH][dR][dR][dR][dR][dR]-NH2)
